Source: patent US8114847B2, “Selective inhibitors of translesion DNA replication” (Case Western Reserve University, priority 2005, dated 2012)
“And” between values parts separate entries of the source, which are not always exact repeats. Equal values may be shown once. Read-outs that look alike come from different tables or passages of the source.

Assays:
[1] = molecular target: T1, gp43exo− (bacteriophage T4 DNA polymerase) (Enterobacteria phage T4, UniProt P04415, D219A); type: biochemical
[2] = molecular target: T1, gp43exo− (bacteriophage T4 DNA polymerase); experiment: biochemical
[3] = molecular target: T1, gp43exo− (bacteriophage T4 DNA polymerase); type: biochemical; conditions: 500 μM analogue; 10 μM dNTPs; unmodified 13/20-mer
[4] = molecular target: T1, gp43exo− (bacteriophage T4 DNA polymerase); experiment: biochemical; conditions: for kpol: pseudo-first-order conditions
[5] = molecular target: T1, gp43exo− (bacteriophage T4 DNA polymerase); experiment: biochemical; type: biochemical
[6] = molecular target: T1, gp43exo− (bacteriophage T4 DNA polymerase); experiment: biochemical; type: biochemical; conditions: 500 μM dNTPs
[7] = molecular target: T1, gp43exo− (bacteriophage T4 DNA polymerase); conditions: cited from earlier work; for Kd / kpol: opposite an abasic site, previously determined values (Table 7 footnotes d, e, f not given); for Kd: read-out: KD
[8] = molecular target: T1, gp43exo− (bacteriophage T4 DNA polymerase); conditions: cited from earlier work

T1 sequence (P04415 whole entry D219A, looked up): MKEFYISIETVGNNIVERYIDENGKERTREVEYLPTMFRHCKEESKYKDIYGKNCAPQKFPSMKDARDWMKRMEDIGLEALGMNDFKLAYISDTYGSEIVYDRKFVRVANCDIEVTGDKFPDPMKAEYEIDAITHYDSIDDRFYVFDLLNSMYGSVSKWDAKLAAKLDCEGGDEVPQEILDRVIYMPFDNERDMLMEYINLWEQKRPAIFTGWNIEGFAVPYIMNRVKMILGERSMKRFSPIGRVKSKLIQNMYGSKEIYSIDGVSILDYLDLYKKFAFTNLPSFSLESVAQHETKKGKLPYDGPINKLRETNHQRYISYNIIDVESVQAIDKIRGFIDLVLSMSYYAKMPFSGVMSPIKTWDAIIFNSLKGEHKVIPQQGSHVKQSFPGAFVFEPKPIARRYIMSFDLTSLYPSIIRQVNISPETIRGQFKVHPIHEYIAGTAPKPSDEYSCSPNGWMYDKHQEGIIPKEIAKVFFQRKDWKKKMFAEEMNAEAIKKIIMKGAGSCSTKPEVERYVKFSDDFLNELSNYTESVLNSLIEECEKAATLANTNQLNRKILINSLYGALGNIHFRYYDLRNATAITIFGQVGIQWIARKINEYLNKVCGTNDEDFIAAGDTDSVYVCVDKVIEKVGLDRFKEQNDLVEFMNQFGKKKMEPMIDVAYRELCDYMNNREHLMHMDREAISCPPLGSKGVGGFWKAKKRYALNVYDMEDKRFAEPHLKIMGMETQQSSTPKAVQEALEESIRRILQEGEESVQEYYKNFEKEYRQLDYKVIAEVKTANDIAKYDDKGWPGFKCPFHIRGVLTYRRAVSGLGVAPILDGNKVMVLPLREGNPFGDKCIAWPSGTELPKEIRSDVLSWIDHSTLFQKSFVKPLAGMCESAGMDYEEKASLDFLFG

SMILES: Nc1nc(N)c2ncn([C@H]3C[C@H](O)[C@@H](COP(=O)(O)OP(=O)(O)OP(=O)(O)O)O3)c2n1 [2,6-DAPTP]
- kext [1]: 0.016 ± 0.003 s⁻¹
- kpol [2]: 2.4 s⁻¹ and 2.4 ± 0.3 s⁻¹
- kpol higher/faster than that for dATP [2]: 16 fold
- Kd ([2]; read-out: KD): 900 µM

SMILES: Nc1ccc2c(ccn2[C@H]2C[C@H](O)[C@@H](COP(=O)(O)OP(=O)(O)OP(=O)(O)O)O2)c1 [5-AITP, 5-Amino-Indole-2′-Deoxyribofuranoside 5″-Triphosphate]
- inhibition of normal DNA synthesis [3]: do not inhibit normal DNA synthesis
- kpol/KD ([4]; Template A): 0.46 × 10^3 M^−1S^−1
- kpol ([4]; Template A): 0.21 ± 0.01 s⁻¹
- kpol/KD ([4]; Template T): 0.53 × 10^3 M^−1S^−1
- kpol ([4]; Template T): 0.071 ± 0.003 s⁻¹
- kpol [5]: 0.17 ± 0.01 s⁻¹
- kpol/KD [5]: 700 M⁻¹ s⁻¹
- inhibition of replication beyond an abasic site ([6]; 20 μM analogue): inhibition is not observed
- inhibition of replication beyond an abasic site ([6]; 350 μM analogue): no effect on the kinetics of elongation

SMILES: O=P(O)(O)OP(=O)(O)OP(=O)(O)OC[C@H]1O[C@@H](n2ccc3cc(C4=CCCCC4)ccc32)C[C@@H]1O [5-CE-ITP]
- Kd [7]: ~10 µM

SMILES: O=P(O)(O)OP(=O)(O)OP(=O)(O)OC[C@H]1O[C@@H](n2ccc3cc(F)ccc32)C[C@@H]1O [5-FITP, 5-Fluoro-indole-2′-deoxyribofuranoside 5′-Triphosphate]
- inhibition of normal DNA synthesis [3]: do not inhibit normal DNA synthesis
- kpol/KD ([4]; Template A): 0.6 × 10^3 M^−1S^−1
- kpol ([4]; Template A): 0.11 ± 0.06 s⁻¹
- kpol/KD ([4]; Template T): 0.29 × 10^3 M^−1S^−1
- kpol ([4]; Template T): 0.040 ± 0.003 s⁻¹
- kpol [5]: 0.30 ± 0.03 s⁻¹
- kpol/KD [5]: 2000 M⁻¹ s⁻¹
- inhibition of replication beyond an abasic site ([6]; 20 μM analogue): inhibition is not observed
- inhibition of replication beyond an abasic site ([6]; 350 μM analogue): no effect on the kinetics of elongation

SMILES: Nc1ccc2[nH]ccc2c1 [5-amino-indole]
- Catalytic efficiency (kpol/KD) [5]: 500 M⁻¹ s⁻¹

SMILES: Fc1ccc2[nH]ccc2c1 [5-fluoro-indole]
- Catalytic efficiency (kpol/KD) [5]: 2000 M⁻¹ s⁻¹

SMILES: O=[N+]([O-])c1ccc2[nH]ccc2c1 [5-nitro-indole]
- Catalytic efficiency (kpol/KD) [8]: 7e+06 M⁻¹ s⁻¹

SMILES: c1ccc(-c2ccc3[nH]ccc3c2)cc1 [5-phenyl-indole]
- Catalytic efficiency (kpol/KD) [5]: 3.8e+06 M⁻¹ s⁻¹

SMILES: Nc1nc(Cl)c2ncn([C@H]3C[C@H](O)[C@@H](COP(=O)(O)OP(=O)(O)OP(=O)(O)O)O3)c2n1 [6-Cl-2APTP]
- elongated slower compared to dATP, N^7-deaza dATP and N^6-methyl dATP [1]: ~10 fold
- kext [1]: 0.033 ± 0.004 s⁻¹
- kpol [2]: 0.12 and 0.12 ± 0.01 s^−1
- Kd ([2]; read-out: KD): 71 ± 20 µM

SMILES: O=P(O)(O)OP(=O)(O)OP(=O)(O)OC[C@H]1O[C@@H](n2cnc3c(Cl)ncnc32)C[C@@H]1O [6-Cl-dATP]
- kext [1]: 0.031 ± 0.003 s⁻¹
- kpol [2]: 0.28 ± 0.02 s⁻¹
- kpol higher/faster than that for dATP [2]: 2 fold
- Kd ([2]; read-out: KD): 83 ± 16 µM

SMILES: Nc1ncnc2c1ccn2[C@H]1C[C@H](O)[C@@H](COP(=O)(O)OP(=O)(O)OP(=O)(O)O)O1 [7-Deaza dATP]
- kext [1]: 0.32 ± 0.03 s⁻¹
- catalytic efficiency higher than that for 7-deaza dGTP [2]: > 10 fold
- kpol [2]: 1.4 and 1.4 ± 0.1 s^−1
- kpol higher/faster than that for dATP [2]: ~10 fold
- Kd ([2]; KD): 200 µM and 197 µM

SMILES: Nc1nc2c(ccn2[C@H]2C[C@H](O)[C@@H](COP(=O)(O)OP(=O)(O)OP(=O)(O)O)O2)c(=O)[nH]1 [7-Deaza dGTP]
- extension beyond dXMP:abasic site mispair [1]: lack of extension
- kpol [2]: 0.11 and 0.11 ± 0.02 s^−1
- kpol higher/faster than that for dGTP [2]: ~5 fold
- Kd ([2]; KD): 215 µM

SMILES: Nc1ncnc2c1[nH]c(=O)n2[C@H]1C[C@H](O)[C@@H](COP(=O)(O)OP(=O)(O)OP(=O)(O)O)O1 [8-Oxo dATP]
- incorporation opposite an abasic site [2]: no incorporation was observed

SMILES: O=P(O)(O)OP(=O)(O)OP(=O)(O)OC[C@H]1O[C@@H](n2ccc3ccccc32)C[C@@H]1O [IndTP, reference compound]
- inhibition of normal DNA synthesis [3]: do not inhibit normal DNA synthesis
- inhibition of replication beyond an abasic site ([6]; 20 μM analogue): inhibition is not observed
- inhibition of replication beyond an abasic site ([6]; 350 μM analogue): no effect on the kinetics of elongation
- kpol [8]: 0.28 ± 0.07 s⁻¹
- kpol/KD [8]: 1900 M⁻¹ s⁻¹
- Kd ([8]; read-out: KD): 145 ± 10 µM

SMILES: CNc1nc2c(ncn2[C@H]2C[C@H](O)[C@@H](COP(=O)(O)OP(=O)(O)OP(=O)(O)O)O2)c(=O)[nH]1 [N^2-methyl dGTP]
- kpol [2]: 0.12 and 0.12 ± 0.02 s^−1
- kpol higher/faster than that for dGTP [2]: ~5 fold
- Kd ([2]; read-out: KD): 245 µM

SMILES: CNc1ncnc2c1ncn2[C@H]1C[C@H](O)[C@@H](COP(=O)(O)OP(=O)(O)OP(=O)(O)O)O1 [N^6-methyl dATP]
- kext [1]: 0.71 ± 0.04 s⁻¹
- kpol [2]: 5.6+/−0.6 and 5.3 and 5.6 ± 0.6 s^−1
- kpol higher/faster than that for dATP [2]: 40 fold
- Kd ([2]; KD): 190 µM

SMILES: COc1nc(N)nc2c1ncn2[C@H]1C[C@H](O)[C@@H](COP(=O)(O)OP(=O)(O)OP(=O)(O)O)O1 [O^6-methyl dGTP]
- increase in kext compared with dGTP [1]: ~20 fold
- kext [1]: 0.092 ± 0.009 s⁻¹
- kpol [2]: 0.98 and 0.98 ± 0.08 s^−1
- kpol higher/faster than that for dGTP [2]: 40 fold
- Kd ([2]; read-out: KD): 180 µM and 181 µM

SMILES: Nc1ncnc2nc[nH]c12 [adenine, reference compound]
- Catalytic efficiency (kpol/KD) [8]: 1500 M⁻¹ s⁻¹

SMILES: Nc1ncnc2c1ncn2[C@H]1C[C@H](O)[C@@H](COP(=O)(O)OP(=O)(O)OP(=O)(O)O)O1 [dATP]
- overall catalytic efficiency opposite an abasic site greater than dGTP [7]: ~35 fold
- kpol [7]: 0.15 s⁻¹ and 0.15 ± 0.01 s⁻¹
- Kd [7]: 35 µM
- kext [1]: 0.25 ± 0.01 s⁻¹
- kpol [8]: ≈ 0.15 s^−1
- kpol/KD [8]: 4300 M⁻¹ s⁻¹

SMILES: Nc1nc2c(ncn2[C@H]2C[C@H](O)[C@@H](COP(=O)(O)OP(=O)(O)OP(=O)(O)O)O2)c(=O)[nH]1 [dGTP]
- kpol [7]: 0.023 ± 0.005 s⁻¹
- Kd [7]: 130 µM
- kext [1]: 0.005 ± 0.001 s⁻¹

SMILES: O=c1[nH]cnc2c1ncn2[C@H]1C[C@H](O)[C@@H](COP(=O)(O)OP(=O)(O)OP(=O)(O)O)O1 [dITP]
- extension beyond dXMP:abasic site mispair [1]: lack of extension
- kpol [2]: 0.044 ± 0.003 s⁻¹
- kpol lower than that of dATP [2]: 3.5 fold
- Kd ([2]; read-out: KD): 103 ± 14 µM

SMILES: c1ccc2[nH]ccc2c1 [indole, reference compound]
- Catalytic efficiency (kpol/KD) [8]: 1900 M⁻¹ s⁻¹
